Data published in US20230233541A1, “SUBSTITUTED BENZAMIDES AS MODULATORS OF TREX1” (Constellation Pharmaceuticals, Inc., priority 2020, published 2023).

Assays:
full length human TREX1 = target: T1, full length human TREX1 (Homo sapiens, UniProt Q9NSU2); assay: TREX1 Biochemical Assay (fluorescence assay, degradation of dsDNA substrate); conditions: 150 pM TREX1, 60 nM dsDNA substrate, 25 minutes at room temperature; read-out: hTREX1 EC50
T1 construct: N-terminally His-Tev tagged full length human TREX1; His-Tev (His tag with TEV protease site) (N); made in house; host or cells: E. coli
T1 sequence (Q9NSU2 1-314): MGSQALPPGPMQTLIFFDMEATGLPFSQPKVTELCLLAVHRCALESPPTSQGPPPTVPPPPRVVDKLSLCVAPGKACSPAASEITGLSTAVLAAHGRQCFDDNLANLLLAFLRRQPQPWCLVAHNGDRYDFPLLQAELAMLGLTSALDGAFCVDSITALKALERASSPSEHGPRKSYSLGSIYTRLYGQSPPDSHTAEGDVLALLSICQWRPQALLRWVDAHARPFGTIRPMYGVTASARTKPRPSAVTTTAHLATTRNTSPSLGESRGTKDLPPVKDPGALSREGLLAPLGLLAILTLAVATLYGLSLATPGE
Method: Degradation of the dsDNA liberates free fluorophore to produce a fluorescent signal. Specifically, 7.5 μL of N-terminally His-Tev tagged full length human TREX1 (expressed in E. coli and purified in house) in reaction buffer (50 mM Tris (pH 7.4), 150 mM NaCl, 2 mM DTT, 0.1 mg/mL BSA, 0.01% (v/v) Tween-20 and 100 mM MgCl2) was added to a 384-well Black ProxiPlate Plus (Perkin Elmer) which already contained compound (150 nL) at varying concentrations as a 10-point dose-response in DMSO. To this was added 7.5 μL of dsDNA substrate (Strand A: 5′ TEX615/GCT AGG CAG 3′; Strand B: 5′ CTG CCT AGC/IAbRQSp (Integrated DNA Technologies)) in reaction buffer. Final concentrations were 150 pM TREX1, 60 nM dsDNA substrate in reaction buffer with 1.0% DMSO (v/v). After 25 minutes at room temperature, reactions were quenched by the addition of 5 μL of stop buffer (same as reaction buffer plus 200 mM EDTA). Final concentrations in the quenched reaction were 112.5 pM TREX1, 45 nM DNA and 50 mM EDTA in a volume of 20 μL. After a 5-minute incubation at room temperature, plates were read in a laser sourced Envision (Perkin-Elmer), measuring fluorescence at 615 nm following excitation w/570 nm light. IC50 values were calculated by comparing the measured fluorescence at 615 nm ratio relative to control wells pre-quenched w/stop buffer (100% inhibition) and no inhibitor (0% inhibition) controls as using non-linear least square four parameter fits and either Genedata or GraphPad Prism (GraphPad Software, Inc.).

[1] = target: T2, human TREX2 (residues M44-A279) (Homo sapiens, UniProt Q9BQ50); assay: TREX2 Biochemical Assay (fluorescence assay, degradation of dsDNA substrate); conditions: 2.5 nM TREX2, 60 nM dsDNA substrate, 25 minutes at room temperature; read-out: hTREX2 EC50
T2 construct: human TREX2 (residues M44-A279, expressed in E. coli); His-Tev (His tag with TEV protease site) (N); made in house; host or cells: E. coli
T2 sequence (Q9BQ50 44-279 isoform Q9BQ50-1): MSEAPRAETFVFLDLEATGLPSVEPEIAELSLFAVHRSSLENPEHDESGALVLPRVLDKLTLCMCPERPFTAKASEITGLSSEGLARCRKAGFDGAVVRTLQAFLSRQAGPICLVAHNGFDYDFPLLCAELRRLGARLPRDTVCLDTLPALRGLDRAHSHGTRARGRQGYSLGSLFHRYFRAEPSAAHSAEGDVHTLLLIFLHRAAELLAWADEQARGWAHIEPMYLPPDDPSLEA
Method: Degradation of the dsDNA liberates free fluorophore to produce a fluorescent signal. Specifically, 7.5 μL of N-terminally His-Tev tagged human TREX2 (residues M44-A279, expressed in E. coli and purified in house) in reaction buffer (50 mM Tris (pH 7.4), 150 mM NaCl, 2 mM DTT, 0.1 mg/mL BSA, 0.01% (v/v) Tween-20 and 100 mM MgCl2) was added to a 384-well Black ProxiPlate Plus (Perkin Elmer) which already contained compound (150 nL) at varying concentrations as a 10-point dose-response in DMSO. To this was added 7.5 μL of dsDNA substrate (Strand A: 5′ TEX615/GCT AGG CAG 3′; Strand B: 5′ CTG CCT AGC/IAbRQSp (IDT)) in reaction buffer. Final concentrations were 2.5 nM TREX2, 60 nM dsDNA substrate in reaction buffer with 1.0% DMSO (v/v). After 25 minutes at room temperature, reactions were quenched by the addition of 5 μL of stop buffer (same as reaction buffer plus 200 mM EDTA). Final concentrations in the quenched reaction mixture were […] TREX2, 45 nM DNA and 50 mM EDTA in a volume of 20 μL. After a 5-minute incubation at room temperature, plates were read in a laser sourced Envision (Perkin-Elmer), measuring fluorescence at 615 nm following excitation w/570 nm light. IC50 values were calculated by comparing the measured fluorescence at 615 nm ratio relative to control wells pre-quenched w/stop buffer (100% inhibition) and no inhibitor (0% inhibition) controls as using non-linear least square four parameter fits and either Genedata or GraphPad Prism (GraphPad Software, Inc.).

SMILES	EC50 (full length human TREX1)	EC50 [1]
O=C(c1ccccc1F)N(Cc1cccnc1)Cc1cc(Cl)cc(Cl)c1 [Compound 37]	> 10 µM	> 100 µM
O=C(c1ccc(F)c(Br)c1)N(Cc1cccnc1)Cc1cc(Cl)cc(Cl)c1 [Compound 38]	> 10 µM	> 100 µM
O=C(c1ccc(Oc2ccc(F)cc2)cc1)N(Cc1cccnc1)Cc1ccc(Cl)cc1Cl [Compound 39]	> 10 µM	> 100 µM
O=C(c1cc(Br)c(O)c(Br)c1)N(Cc1cccnc1)Cc1ccc(Cl)cc1Cl [Compound 40]	> 10 µM	> 100 µM
COc1cc(C(=O)N(Cc2cccnc2)Cc2ccc(Cl)cc2Cl)cc(Br)c1O [Compound 41]	> 10 µM	> 100 µM
O=C(c1ccccc1N1CCCCC1)N(Cc1cccnc1)Cc1ccc(Cl)cc1Cl [Compound 42]	> 10 µM	> 100 µM
O=C(c1cccc(-c2ccccc2)c1)N(Cc1cccnc1)Cc1ccc(Cl)cc1Cl [Compound 43]	> 10 µM	> 100 µM
O=C(c1ccccc1Oc1ccccc1)N(Cc1cccnc1)Cc1ccc(Cl)cc1Cl [Compound 44]	> 10 µM	> 100 µM
O=C(c1ccc(Cl)cc1O)N(Cc1cccnc1)Cc1cc(Cl)cc(Cl)c1 [Compound 45]	> 10 µM	> 100 µM
O=C(c1ccccc1N1CCCCC1)N(Cc1cccnc1)Cc1cc(Cl)cc(Cl)c1 [Compound 46]	> 10 µM	> 100 µM
COc1cc(C(=O)N(Cc2cccnc2)Cc2cc(Cl)cc(Cl)c2)cc(Br)c1OC [Compound 47]	> 10 µM	> 100 µM
O=C(c1ccc(O)cc1)N(Cc1cccnc1)Cc1cc(Cl)cc(Cl)c1 [Compound 48]	> 10 µM	> 100 µM
O=C(c1cc(Cl)c(O)c(Cl)c1)N(Cc1cccnc1)Cc1cc(Cl)cc(Cl)c1 [Compound 49]	> 10 µM	> 100 µM
COc1cc(C(=O)N(Cc2cccnc2)Cc2cc(Cl)cc(Cl)c2)ccc1F [Compound 50]	> 10 µM	> 100 µM
CC(C)c1ccc(C(=O)N(Cc2cccnc2)Cc2cc(Cl)cc(Cl)c2)cc1 [Compound 51]	> 10 µM	> 100 µM
COc1cc(Br)cc(C(=O)N(Cc2cccnc2)Cc2cc(Cl)cc(Cl)c2)c1 [Compound 52]	> 10 µM	> 100 µM
O=C(c1cc(Br)c(O)c(Br)c1)N(Cc1cccnc1)Cc1cc(Cl)cc(Cl)c1 [Compound 53]	> 10 µM	10 to 100 µM
CC(C)Oc1ccc(C(=O)N(Cc2cccnc2)Cc2cc(Cl)cc(Cl)c2)cc1 [Compound 54]	> 10 µM	> 100 µM
O=C(c1ccccc1Oc1ccccc1)N(Cc1cccnc1)Cc1cc(Cl)cc(Cl)c1 [Compound 55]	> 10 µM	> 100 µM
O=C(c1cccc(-c2ccccc2)c1)N(Cc1cccnc1)Cc1cc(Cl)cc(Cl)c1 [Compound 56]	> 10 µM	> 100 µM
O=C(c1ccc(O)c(F)c1)N(Cc1cccnc1)Cc1cc(Cl)cc(Cl)c1 [Compound 57]	> 10 µM	> 100 µM
O=C(c1ccc(-c2ccccc2)cc1)N(Cc1cccnc1)Cc1cc(Cl)cc(Cl)c1 [Compound 58]	> 10 µM	> 100 µM
O=C(c1ccc(Oc2ccc(Cl)cc2)cc1)N(Cc1cccnc1)Cc1cc(Cl)cc(Cl)c1 [Compound 59]	> 10 µM	> 100 µM

SMILES	EC50 (full length human TREX1)	EC50 [1]
O=C(c1ccc(CO)cc1F)N(Cc1cccnc1)Cc1cc(Cl)cc(Cl)c1 [Compound 60]	> 10 µM	> 100 µM
CC(C)(C)c1ccc(C(=O)N(Cc2cccnc2)Cc2cc(Cl)cc(Cl)c2)cc1 [Compound 61]	> 10 µM	> 100 µM
COc1cc(C(=O)N(Cc2cccnc2)Cc2cc(Cl)cc(Cl)c2)cc(Br)c1O [Compound 62]	> 10 µM	> 100 µM
O=C(c1ccc(Cl)cc1Br)N(Cc1cccnc1)Cc1cc(Cl)cc(Cl)c1 [Compound 63]	> 10 µM	> 100 µM
O=C(c1ccc(CO)cc1)N(Cc1cccnc1)Cc1cc(Cl)cc(Cl)c1 [Compound 64]	> 10 µM	> 100 µM
O=C(c1ccc(F)c(Cl)c1)N(Cc1cccnc1)Cc1cc(Cl)cc(Cl)c1 [Compound 65]	1 to 10 µM	> 100 µM
O=C(c1cccc(Oc2ccccc2)c1)N(Cc1cccnc1)Cc1cc(Cl)cc(Cl)c1 [Compound 66]	> 10 µM	> 100 µM
COc1cc(C(=O)N(Cc2cccnc2)Cc2cc(Cl)cc(Cl)c2)cc(Cl)c1O [Compound 67]	> 10 µM	> 100 µM
Cc1cc(C(=O)N(Cc2cccnc2)Cc2cc(Cl)cc(Cl)c2)cc(C)c1O [Compound 69]	> 10 µM	> 100 µM
O=C(c1ccc(Br)cc1Cl)N(Cc1cccnc1)Cc1cc(Cl)cc(Cl)c1 [Compound 70]	> 10 µM	> 100 µM
O=C(c1ccc(Oc2ccccc2)cc1)N(Cc1cccnc1)Cc1cc(Cl)cc(Cl)c1 [Compound 71]	> 10 µM	> 100 µM
O=C(c1ccc(O)c(C(F)(F)F)c1)N(Cc1cccnc1)Cc1cc(Cl)cc(Cl)c1 [Compound 72]	> 10 µM	> 100 µM
O=C(c1ccc(O)c(Br)c1)N(Cc1cccnc1)Cc1cc(Cl)cc(Cl)c1 [Compound 73]	> 10 µM	> 100 µM
O=C(c1ccc(Oc2ccc(F)cc2)cc1)N(Cc1cccnc1)Cc1cc(Cl)cc(Cl)c1 [Compound 74]	> 10 µM	> 100 µM
O=C(c1ccc(Cl)c(Cl)c1)N(Cc1cccnc1)Cc1cc(Cl)cc(Cl)c1 [Compound 75]	> 10 µM	> 100 µM
Cc1ccc(C(=O)N(Cc2cccnc2)Cc2cc(Cl)cc(Cl)c2)c(Br)c1 [Compound 76]	> 10 µM	> 100 µM
O=C(c1ccc(Oc2ccc(Br)cc2)cc1)N(Cc1cccnc1)Cc1cc(Cl)cc(Cl)c1 [Compound 77]	> 10 µM	> 100 µM
Cc1cc(C(=O)N(Cc2cccnc2)Cc2cc(Cl)cc(Cl)c2)ccc1Br [Compound 78]	> 10 µM	> 100 µM
O=C(/C=C/c1ccco1)N(Cc1cccnc1)Cc1ccc(Cl)cc1Cl [Compound 79]	> 10 µM	> 100 µM
COc1cc(C(=O)N(Cc2cccnc2)Cc2ccc(Cl)cc2Cl)ccc1F [Compound 80]	> 10 µM	> 100 µM
O=C(C1CC1)N(Cc1cccnc1)Cc1ccc(Cl)cc1Cl [Compound 81]	> 10 µM	> 100 µM
CC(C)(C)c1ccc(C(=O)N(Cc2cccnc2)Cc2ccc(Cl)cc2Cl)cc1 [Compound 82]	> 10 µM	> 100 µM
